Source: patent US11209732B2, “Near infrared absorbing composition, film, infrared cut filter, solid image pickup element, infrared absorber, and compound” (FUJIFILM Corporation, priority 2015, dated 2021)

Assays:
[1] = Absorption maximum of compound in chloroform solution; format: physicochemical; settings: absorbance at maximum 0.7 to 1.2
Description: The absorption maximum of the squarylium compound (1) is a value measured using a chloroform solution of the squarylium compound that is adjusted such that an absorbance at the absorption maximum is in a range of 0.7 to 1.2.
Each of the obtained compounds was dissolved in chloroform to prepare a solution having a concentration of 1 g/L. Next, the solution in which each of the compounds was dissolved was appropriately diluted such that an absorbance at an absorption maximum in an absorption spectrum thereof was in a range of 0.7 to 1.2, and the absorption maximum (λmax) thereof was measured using UV-1800 (manufactured by Shimadzu Corporation).

[2] = Solubility of compound in solvents at 25° C.; format: physicochemical; settings: for Solubility PGMEA: propylene glycol monomethyl ether acetate; for Solubility Cyclohexanone / Solubility in each of the solvents (in words): cyclohexanone; for Solubility in each of the solvents (in words): PGMEA; for Solubility Toluene / Solubility in each of the solvents (in words): toluene
Description: The solubility of each of the compounds in each of solvents (cyclohexanone, propylene glycol monomethyl ether acetate (PGMEA), toluene) at 25° C. was evaluated based on the following criteria.
A: the solubility of the compound in the solvent at 25° C. was 2 mass % or higher

Compound: CCCCCCC1=CC(=[N+](c2ccc3ccccc3c2)c2ccc3ccccc3c2)S/C1=C1\C(=O)C(c2sc(N(c3ccc4ccccc4c3)c3ccc4ccccc4c3)cc2CCCCCC)=C1[O-] [Compound 1]
- Absorption Maximum (nm) [1]: 719 nm
- Solubility Cyclohexanone [2]: A (the solubility of the compound in the solvent at 25 °C was 2 mass % or higher)
- Solubility PGMEA [2]: B (the solubility of the compound in the solvent at 25 °C was 1 mass % or higher and lower than 2 mass %)
- Solubility Toluene [2]: A (the solubility of the compound in the solvent at 25 °C was 2 mass % or higher)

Compound: CCCCCCCCc1ccc(N(c2ccc(CCCCCCCC)cc2)c2cc3sc(C4=C([O-])/C(=c5\cc6c(s5)=CC(=[N+](c5ccc(CCCCCCCC)cc5)c5ccc(CCCCCCCC)cc5)S6)C4=O)cc3s2)cc1 [Compound 2]
- Absorption Maximum (nm) [1]: 770 nm
- Solubility Cyclohexanone [2]: A (the solubility of the compound in the solvent at 25 °C was 2 mass % or higher)
- Solubility PGMEA [2]: B (the solubility of the compound in the solvent at 25 °C was 1 mass % or higher and lower than 2 mass %)
- Solubility Toluene [2]: B (the solubility of the compound in the solvent at 25 °C was 1 mass % or higher and lower than 2 mass %)

Compound: CCCCCCCCc1ccc(N(c2ccc(CCCCCCCC)cc2)c2ccc(/C=C/c3ccc(C4=C([O-])/C(=c5\cc/c(=C\C=C6/C=CC(=[N+](c7ccc(CCCCCCCC)cc7)c7ccc(CCCCCCCC)cc7)S6)s5)C4=O)s3)s2)cc1 [Compound 4]
- Absorption Maximum (nm) [1]: 860 nm
- Solubility Cyclohexanone [2]: A (the solubility of the compound in the solvent at 25 °C was 2 mass % or higher)
- Solubility PGMEA [2]: B (the solubility of the compound in the solvent at 25 °C was 1 mass % or higher and lower than 2 mass %)
- Solubility Toluene [2]: B (the solubility of the compound in the solvent at 25 °C was 1 mass % or higher and lower than 2 mass %)

Compound: CCCCCCc1cc(-c2ccc(N(c3ccc(C)cc3)c3ccc(C)cc3)s2)sc1C1=C([O-])/C(=c2/s/c(=C3\C=CC(=[N+](c4ccc(C)cc4)c4ccc(C)cc4)S3)cc2CCCCCC)C1=O [Compound 5]
- Solubility Cyclohexanone [2]: A (the solubility of the compound in the solvent at 25 °C was 2 mass % or higher)
- Solubility PGMEA [2]: B (the solubility of the compound in the solvent at 25 °C was 1 mass % or higher and lower than 2 mass %)
- Solubility Toluene [2]: A (the solubility of the compound in the solvent at 25 °C was 2 mass % or higher)

Compound: O=C1C(c2sc(N(c3ccccc3)c3ccccc3)nc2-c2ccccc2)=C([O-])/C1=C1/SC(=[N+](c2ccccc2)c2ccccc2)N=C1c1ccccc1 [Compound R-1, reference compound]
- Absorption Maximum (nm) [1]: 687 nm
- Solubility Cyclohexanone [2]: C (the solubility of the compound in the solvent at 25 °C was 0.5 mass % or higher and lower than 1 mass %)
- Solubility in each of the solvents (in words) [2]: insufficient
- Solubility PGMEA [2]: D (the solubility of the compound in the solvent at 25 °C was lower than 0.5 mass %)
- Solubility Toluene [2]: C (the solubility of the compound in the solvent at 25 °C was 0.5 mass % or higher and lower than 1 mass %)

Compound: CCCCCCCCCCCCN(c1ccccc1)c1ccc(C2=C([O-])/C(=C3C=C/C(=[N+](\CCCCCCCCCCCC)CCNS(=O)(=O)CCCC)C=C/3O)C2=O)s1 [Compound R-2, reference compound]
- Absorption Maximum (nm) [1]: 653 nm
- Solubility Cyclohexanone [2]: A (the solubility of the compound in the solvent at 25 °C was 2 mass % or higher)
- Solubility PGMEA [2]: A (the solubility of the compound in the solvent at 25 °C was 2 mass % or higher)
- Solubility Toluene [2]: A (the solubility of the compound in the solvent at 25 °C was 2 mass % or higher)

Compound: CCCCc1ccc(N(c2ccc(CCCC)cc2)c2ccc(C3=C([O-])/C(=C4\C=CC(=[N+](c5ccc(CCCC)cc5)c5ccc(CCCC)cc5)S4)C3=O)s2)cc1 [Compound R-3, reference compound]
- Absorption Maximum (nm) [1]: 704 nm
- Solubility Cyclohexanone [2]: B (the solubility of the compound in the solvent at 25 °C was 1 mass % or higher and lower than 2 mass %)
- Solubility in each of the solvents (in words) [2]: insufficient
- Solubility PGMEA [2]: D (the solubility of the compound in the solvent at 25 °C was lower than 0.5 mass %)
- Solubility Toluene [2]: B (the solubility of the compound in the solvent at 25 °C was 1 mass % or higher and lower than 2 mass %)
